How the values were obtained:
Assay in all cases: relative viability (nuclei count vs DMSO), 5 days (fraction); higher = more cells survive
Carfilzomib + OSI-027 = compound: CC(C)C[C@H](NC(=O)[C@H](CCc1ccccc1)NC(=O)CN1CCOCC1)C(=O)N[C@@H](Cc1ccccc1)C(=O)N[C@@H](CC(C)C)C(=O)[C@@]1(C)CO1 [Carfilzomib] + COc1cccc2cc(-c3nc([C@H]4CC[C@H](C(=O)O)CC4)n4ncnc(N)c34)[nH]c12 [OSI-027] (partner 0.5 µM)
In short: (§1)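 After 5 days of treatment, lung cancer cells in 1536-well plates were fixed and stained in a single step (final 0.05% Triton X-100, 1% formaldehyde, 1 ug/ml Hoechst) and their nuclei counted on 4× images. Treatment had been applied by pin tool the day after seeding as one drug alone or as a fixed anchor-drug dose with five library-drug doses (not always all listed) in √10 steps. Relative viability is the nuclei count of treated wells divided by that of vehicle wells, and values are medians of duplicate plates.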

Crizotinib + Foretinib = compound: C[C@@H](Oc1cc(-c2cnn(C3CCNCC3)c2)cnc1N)c1c(Cl)ccc(F)c1Cl [Crizotinib] + COc1cc2c(Oc3ccc(NC(=O)C4(C(=O)Nc5ccc(F)cc5)CC4)cc3F)ccnc2cc1OCCCN1CCOCC1 [Foretinib] (partner 0.25 µM)
In short: as §1

Olaparib + Alpelisib = compound: O=C(c1cc(Cc2n[nH]c(=O)c3ccccc23)ccc1F)N1CCN(C(=O)C2CC2)CC1 [Olaparib] + Cc1nc(NC(=O)N2CCC[C@H]2C(N)=O)sc1-c1ccnc(C(C)(C)C(F)(F)F)c1 [Alpelisib] (partner 2 µM)
In short: as §1

Olaparib + Decitabine = compound: O=C(c1cc(Cc2n[nH]c(=O)c3ccccc23)ccc1F)N1CCN(C(=O)C2CC2)CC1 [Olaparib] + Nc1ncn([C@H]2C[C@H](O)[C@@H](CO)O2)c(=O)n1 [Decitabine] (partner 2 µM)
In short: as §1

| Cell Line | relative viability (Carfilzomib + OSI-027; first compound 0.001 µM) | relative viability (Carfilzomib + OSI-027; first compound 0.003162 µM) | relative viability (Carfilzomib + OSI-027; first compound 0.01 µM) | relative viability (Carfilzomib + OSI-027; first compound 0.03162 µM) | relative viability (Carfilzomib + OSI-027; first compound 0.1 µM) | relative viability (Crizotinib + Foretinib; first compound 0.01 µM) | relative viability (Crizotinib + Foretinib; first compound 0.03162 µM) | relative viability (Crizotinib + Foretinib; first compound 0.1 µM) | relative viability (Crizotinib + Foretinib; first compound 0.3162 µM) | relative viability (Crizotinib + Foretinib; first compound 1 µM) | relative viability (Olaparib + Alpelisib; first compound 0.08 µM) | relative viability (Olaparib + Alpelisib; first compound 0.253 µM) | relative viability (Olaparib + Alpelisib; first compound 2.53 µM) | relative viability (Olaparib + Alpelisib; first compound 8 µM) | relative viability (Olaparib + Decitabine; first compound 0.08 µM) | relative viability (Olaparib + Decitabine; first compound 0.253 µM) | relative viability (Olaparib + Decitabine; first compound 2.53 µM) | relative viability (Olaparib + Decitabine; first compound 8 µM) |
| --- | --- | --- | --- | --- | --- | --- | --- | --- | --- | --- | --- | --- | --- | --- | --- | --- | --- | --- |
| EKVX | 0.689 | 0.754 | 0.834 | 0.601 | 0.315 | 0.772 | 0.752 | 0.717 | 0.444 | 0.991 | 1.11 | 0.872 | 0.844 | 0.903 | 0.238 | 0.276 | 0.337 | 0.276 |
| EMC-BAC-2 | 0.378 | 0.448 | 0.409 | 0.242 | 0.197 | 0.984 | 0.952 | 1.02 | 1.04 | 1.07 | 0.737 | 0.751 | 0.636 | 0.621 | 0.931 | 0.869 | 0.669 | 0.599 |
| EPLC-272H | 0.284 | 0.291 | 0.248 | 0.119 | 0.0723 | 0.669 | 0.627 | 0.669 | 0.636 | 0.679 | 1.03 | 0.871 | 1.09 | 0.789 | 0.478 | 0.349 | 0.302 | 0.329 |
| H3255 | 0.581 | 0.536 | 0.65 | 0.584 | 0.237 | 0.849 | 0.866 | 1.11 | 0.581 | 0.877 | 0.751 | 0.752 | 0.652 | 0.647 | 0.548 | 0.516 | 0.621 | 0.444 |
| HARA | 0.537 | 0.564 | 0.675 | 0.0444 | 0.0712 | 0.924 | 0.705 | 0.858 |  | 0.877 | 0.935 | 0.728 | 0.959 | 0.76 | 0.437 | 0.397 | 0.396 | 0.338 |
| HCC-15 | 0.706 | 0.801 | 0.763 | 0.279 | 0.0802 | 1.07 | 1 | 1.03 |  | 0.987 | 0.988 | 0.815 | 0.905 | 0.724 | 0.682 | 0.479 | 0.463 | 0.344 |
| HCC-44 | 0.48 | 0.564 | 0.574 | 0.338 | 0.217 |  |  |  |  |  | 0.89 | 0.721 | 0.914 | 0.839 | 0.812 | 0.846 | 0.783 | 0.802 |
| HCC-78 | 0.332 | 0.318 | 0.387 | 0.359 | 0.227 |  | 0.685 | 0.566 | 0.592 | 0.599 | 0.424 | 0.328 | 0.445 | 0.365 | 0.613 | 0.562 | 0.508 | 0.455 |
| HCC-366 | 0.914 | 1.02 | 1.12 | 0.839 | 0.035 | 0.913 | 0.841 | 0.893 |  | 0.95 | 0.392 | 0.31 | 0.3 | 0.15 | 0.186 | 0.144 | 0.0931 | 0.113 |
